# Data reported in ChEMBL document CHEMBL1201862, “PubChem BioAssay data set” (2004).
# Activity calls are given as the source filed them.
# How the values were obtained:
# [1] = biological target: Kappa-type opioid receptor (Homo sapiens, UniProt P41145); test: SAR analysis of small molecule agonists of the kappa opioid receptor via a luminescent beta-arrestin assay - Set 3. [Related pubchem assays (depositor defined):AID1777, AID1785, AID1786, AID1966, AID2133, AID2136, AID2284, AID2500]; type: functional
# Hexokinase HKDC1 = biological target: T1, Hexokinase HKDC1 (Homo sapiens, UniProt Q2TB90); test: activation of HKDC1 glucose phosphorylation – biochemical, W721R variant, dose response (AID 504730); type: functional
# T1 sequence (Q2TB90 whole entry): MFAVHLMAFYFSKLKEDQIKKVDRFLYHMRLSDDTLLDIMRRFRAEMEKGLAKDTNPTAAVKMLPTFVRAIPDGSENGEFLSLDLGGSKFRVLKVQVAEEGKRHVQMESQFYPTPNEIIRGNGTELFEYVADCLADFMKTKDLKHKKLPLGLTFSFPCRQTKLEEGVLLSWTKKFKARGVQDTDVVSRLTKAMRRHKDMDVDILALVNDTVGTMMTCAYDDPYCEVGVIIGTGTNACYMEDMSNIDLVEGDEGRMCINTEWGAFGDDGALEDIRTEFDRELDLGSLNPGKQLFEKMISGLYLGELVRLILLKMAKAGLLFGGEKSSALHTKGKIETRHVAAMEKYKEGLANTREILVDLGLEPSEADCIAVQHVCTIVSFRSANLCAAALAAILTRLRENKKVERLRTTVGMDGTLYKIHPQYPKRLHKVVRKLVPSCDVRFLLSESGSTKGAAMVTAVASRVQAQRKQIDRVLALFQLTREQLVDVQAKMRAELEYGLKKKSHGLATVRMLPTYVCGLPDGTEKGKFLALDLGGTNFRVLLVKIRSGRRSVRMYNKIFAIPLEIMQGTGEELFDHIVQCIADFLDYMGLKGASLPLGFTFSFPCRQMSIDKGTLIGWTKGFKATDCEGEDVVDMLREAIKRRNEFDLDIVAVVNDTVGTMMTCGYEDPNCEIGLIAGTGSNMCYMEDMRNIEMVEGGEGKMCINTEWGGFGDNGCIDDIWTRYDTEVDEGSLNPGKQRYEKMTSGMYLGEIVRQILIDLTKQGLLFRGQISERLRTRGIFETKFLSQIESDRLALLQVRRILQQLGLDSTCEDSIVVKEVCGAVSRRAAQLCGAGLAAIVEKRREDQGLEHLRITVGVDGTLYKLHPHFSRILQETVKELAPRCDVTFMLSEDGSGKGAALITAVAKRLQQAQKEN
# Hexokinase-1 = biological target: T2, Hexokinase-1 (Homo sapiens, UniProt P19367); test: HK1 enzyme activation by HKDC1 hits – biochemical, selectivity assay for HKDC1 activator project, dose response (AID 504762); type: functional
# T2 sequence (P19367 whole entry): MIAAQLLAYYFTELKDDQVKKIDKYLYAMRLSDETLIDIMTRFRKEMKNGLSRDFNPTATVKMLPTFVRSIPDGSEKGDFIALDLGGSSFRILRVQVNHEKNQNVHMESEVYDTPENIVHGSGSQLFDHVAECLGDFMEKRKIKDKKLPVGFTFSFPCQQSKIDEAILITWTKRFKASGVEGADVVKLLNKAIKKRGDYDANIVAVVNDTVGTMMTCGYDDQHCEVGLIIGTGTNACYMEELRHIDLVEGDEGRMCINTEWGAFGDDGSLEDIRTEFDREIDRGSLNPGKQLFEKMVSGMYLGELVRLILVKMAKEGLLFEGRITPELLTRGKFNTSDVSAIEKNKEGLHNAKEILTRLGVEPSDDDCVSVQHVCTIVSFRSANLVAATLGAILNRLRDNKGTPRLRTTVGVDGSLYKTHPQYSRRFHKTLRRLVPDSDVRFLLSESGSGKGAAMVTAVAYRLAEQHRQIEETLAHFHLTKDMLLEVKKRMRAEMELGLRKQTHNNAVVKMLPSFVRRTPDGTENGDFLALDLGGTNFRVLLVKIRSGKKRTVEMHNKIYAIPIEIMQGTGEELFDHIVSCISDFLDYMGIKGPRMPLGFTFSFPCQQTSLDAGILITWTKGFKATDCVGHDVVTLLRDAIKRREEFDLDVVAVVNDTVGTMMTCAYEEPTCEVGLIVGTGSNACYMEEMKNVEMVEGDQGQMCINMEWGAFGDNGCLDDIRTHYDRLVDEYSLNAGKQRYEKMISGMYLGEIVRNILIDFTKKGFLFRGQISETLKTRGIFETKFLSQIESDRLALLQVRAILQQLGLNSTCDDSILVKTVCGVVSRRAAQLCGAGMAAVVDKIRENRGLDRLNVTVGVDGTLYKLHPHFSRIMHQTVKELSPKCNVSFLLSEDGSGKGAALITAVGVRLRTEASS
# [2] = biological target: T3, G-protein coupled receptor 35 (Homo sapiens, UniProt Q9HC97); test: SAR analysis of Agonists of the GPR35 Receptor using an Image-Based Assay - Set 4. [Related pubchem assays (depositor defined):AID2013, AID2026]; type: functional
# Cannabinoid receptor 1 [3] = biological target: T4, Cannabinoid receptor 1 (Homo sapiens, UniProt P21554); test: SAR analysis of agonists of the Cannabinoid Receptor 1 using an Image-Based Assay - Set 4. [Related pubchem assays (depositor defined):AID2013, AID2026]; type: functional
# [4] = biological target: T3, G-protein coupled receptor 35; test: SAR analysis of Antagonists of the GPR35 Receptor using an Image-Based Assay - Set 6. [Related pubchem assays (depositor defined):AID2013, AID2026]; type: functional
# Cannabinoid receptor 1 [5] = biological target: T4, Cannabinoid receptor 1; test: SAR analysis of antagonists of the Cannabinoid Receptor 1 using an Image-Based Assay - Set 4. [Related pubchem assays (depositor defined):AID2013, AID2026]; type: functional
# [6] = biological target: G-protein coupled receptor 55 (Homo sapiens, UniProt Q9Y2T6); test: SAR Analysis of Selective Antagonists of GPR55 using an Image-Based Assay - Set 4. [Related pubchem assays (depositor defined):AID2013, AID2026]; type: functional;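 note: antagonism of response to 5 µM lysophosphatidylinositol agonist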
# Cannabinoid receptor 2 [7] = biological target: T5, Cannabinoid receptor 2 (Homo sapiens, UniProt P34972); test: SAR analysis of antagonists of the Cannabinoid Receptor 2 using an Image-Based Assay - Set 3. [Related pubchem assays (depositor defined):AID2013, AID2026]; type: functional
# Cannabinoid receptor 2 [8] = biological target: T5, Cannabinoid receptor 2; test: SAR analysis of agonists of the Cannabinoid Receptor 2 using an Image-Based Assay - Set 3. [Related pubchem assays (depositor defined):AID2013, AID2026]; type: functional
# [9] = tested on: Streptococcus sp. 'group A'; test: Streptococcus pyogenes SK(-)GAS viability under kanamycin – luminescence, BacTiterGlo, confirmation, counter-screen for streptokinase expression inhibitor project, dose response (AID 1900); type: functional, organism-based
# Streptokinase A = biological target: T6, Streptokinase A (Streptococcus pyogenes serotype M1, UniProt P10520); test: viability-normalized secreted streptokinase activity reduction – plasminogen activation absorbance, OD405, dose response (AID 1914); type: functional, Streptococcus pyogenes M1 GAS;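 note: secreted streptokinase activity via plasminogen activation per viability signal from cell pellet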
# T6 sequence (P10520 whole entry): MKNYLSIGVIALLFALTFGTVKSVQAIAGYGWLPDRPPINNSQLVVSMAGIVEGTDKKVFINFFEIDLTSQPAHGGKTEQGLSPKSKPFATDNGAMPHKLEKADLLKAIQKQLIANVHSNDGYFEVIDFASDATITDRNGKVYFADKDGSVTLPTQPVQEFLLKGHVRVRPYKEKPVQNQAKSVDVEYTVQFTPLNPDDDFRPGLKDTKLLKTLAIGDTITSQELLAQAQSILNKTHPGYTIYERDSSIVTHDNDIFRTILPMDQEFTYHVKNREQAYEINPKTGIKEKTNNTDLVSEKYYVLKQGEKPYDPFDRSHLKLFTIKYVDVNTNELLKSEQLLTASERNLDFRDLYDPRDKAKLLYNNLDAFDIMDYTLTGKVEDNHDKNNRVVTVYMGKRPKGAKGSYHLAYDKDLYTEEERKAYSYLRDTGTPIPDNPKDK
# [10] = viability of PTEN-deleted HCT116 cells – cell-based, HCT116 PTEN knockout, dose response (AID 1047); type: functional;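 note: HCT116 colon tumor cells with PTEN knocked out; cells exposed to compound for 60 hours before readout; potency for loss of cell viability measured by luminescence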
# [11] = viability of HCT116 lacking mutant beta-catenin – cell-based, human colon tumor, dose response (AID 1045); type: functional;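 note: HCT116 colon tumor cells with beta catenin knocked out; cells exposed to compound for 60 hours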
# Streptococcus = test: GAS UMAA2166 growth inhibition – luminescence, BacTiterGlo, counter-screen for streptokinase expression inhibitor project, dose response (AID 1915); type: functional, organism-based;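 note: potency for reduction of bacterial viability or growth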
# [12] = Luminescence Cell-Based Dose Retest to Confirm Inhibitors of Cancer Stem Cells. [Related pubchem assays (depositor defined):AID2717, AID2721]; type: functional; conditions: Homo sapiens
# [13] = PhoP promoter GFP reporter reduction in Typhimurium – purified and synthesized compounds, set 2, PhoP regulon inhibitor project, dose response (AID 2831); type: functional
# [14] = biological target: T7, Tyrosine-protein phosphatase non-receptor type 22 (Homo sapiens, UniProt Q9Y2R2); test: SAR LYP1 Fluorescent Assay using pCAP substrate for In Vitro dose response studies - Set 2. [Related pubchem assays (depositor defined):AID1779, AID1784, AID2135, AID449727]; type: functional
# T7 sequence (Q9Y2R2 whole entry): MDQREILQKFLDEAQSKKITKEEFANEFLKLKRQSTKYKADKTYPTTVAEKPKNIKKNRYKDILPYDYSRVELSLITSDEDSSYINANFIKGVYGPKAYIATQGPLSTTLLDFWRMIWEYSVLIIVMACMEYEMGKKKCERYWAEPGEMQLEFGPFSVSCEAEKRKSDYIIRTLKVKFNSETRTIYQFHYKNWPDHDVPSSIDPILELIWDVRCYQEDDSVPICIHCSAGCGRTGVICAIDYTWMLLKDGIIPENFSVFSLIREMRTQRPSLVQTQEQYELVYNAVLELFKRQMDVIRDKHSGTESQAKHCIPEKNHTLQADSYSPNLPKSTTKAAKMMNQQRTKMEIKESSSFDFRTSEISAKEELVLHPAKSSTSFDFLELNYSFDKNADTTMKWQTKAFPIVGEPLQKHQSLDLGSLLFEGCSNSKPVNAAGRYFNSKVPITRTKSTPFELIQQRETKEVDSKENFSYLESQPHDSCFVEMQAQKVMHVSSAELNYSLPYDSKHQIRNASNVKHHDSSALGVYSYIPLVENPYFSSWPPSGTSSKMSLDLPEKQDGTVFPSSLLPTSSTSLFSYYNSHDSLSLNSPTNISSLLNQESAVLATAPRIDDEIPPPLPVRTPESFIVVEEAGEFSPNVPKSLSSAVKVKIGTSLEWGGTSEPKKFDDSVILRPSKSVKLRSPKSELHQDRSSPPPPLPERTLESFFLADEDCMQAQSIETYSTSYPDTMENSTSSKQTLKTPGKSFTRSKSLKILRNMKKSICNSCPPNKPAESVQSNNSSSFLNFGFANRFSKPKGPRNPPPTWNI
# [15] = biological target: Tyrosine-protein phosphatase non-receptor type 12 (Homo sapiens, UniProt Q05209); test: SAR Selectivity Analysis of small molecule inhibitors of PEST using pCAP in a fluorescence assay. [Related pubchem assays (depositor defined):AID1779, AID1784, AID2135]; type: functional
# [16] = biological target: T7, Tyrosine-protein phosphatase non-receptor type 22; test: SAR LYP1 Fluorescent Assay using OMFP substrate for In Vitro dose response studies - Set 3. [Related pubchem assays (depositor defined):AID1779, AID1784, AID2140, AID2686]; type: functional
# [17] = biological target: T8, Tyrosine-protein phosphatase non-receptor type 7 (Homo sapiens, UniProt P35236); test: inhibition of hematopoietic tyrosine phosphatase HePTP – biochemical, set 2, SAR follow-up (AID 449736); type: functional
# T8 sequence (P35236 whole entry): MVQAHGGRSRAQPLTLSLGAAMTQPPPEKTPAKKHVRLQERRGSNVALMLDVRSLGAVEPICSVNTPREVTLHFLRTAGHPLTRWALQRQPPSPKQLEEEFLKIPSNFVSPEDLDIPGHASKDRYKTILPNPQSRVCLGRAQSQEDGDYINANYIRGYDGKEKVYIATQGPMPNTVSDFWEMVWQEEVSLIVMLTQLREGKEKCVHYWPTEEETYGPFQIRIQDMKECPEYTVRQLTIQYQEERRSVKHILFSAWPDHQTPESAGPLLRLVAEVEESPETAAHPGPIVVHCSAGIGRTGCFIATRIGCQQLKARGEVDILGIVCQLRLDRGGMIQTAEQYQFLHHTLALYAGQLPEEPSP
# [18] = biological target: T7, Tyrosine-protein phosphatase non-receptor type 22; test: SAR LYP1 Fluorescent Assay using OMFP substrate for In Vitro dose response studies - Set 2. [Related pubchem assays (depositor defined):AID1779, AID1784, AID2140, AID449726, AID488869]; type: functional
# 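Throughout, for AC50: cells exposed to compound for roughly 70 hours or longer before luminescence read.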
# T3 sequence (Q9HC97 whole entry): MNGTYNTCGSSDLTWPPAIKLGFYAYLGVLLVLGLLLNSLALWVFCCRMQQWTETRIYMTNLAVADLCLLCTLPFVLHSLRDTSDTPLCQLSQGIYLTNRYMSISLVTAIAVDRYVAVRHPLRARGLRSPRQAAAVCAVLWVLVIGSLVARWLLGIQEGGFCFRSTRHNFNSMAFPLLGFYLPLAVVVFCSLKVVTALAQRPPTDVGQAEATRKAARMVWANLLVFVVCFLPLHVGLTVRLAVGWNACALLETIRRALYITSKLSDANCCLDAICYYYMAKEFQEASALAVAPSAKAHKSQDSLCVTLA
# T4 sequence (P21554 whole entry): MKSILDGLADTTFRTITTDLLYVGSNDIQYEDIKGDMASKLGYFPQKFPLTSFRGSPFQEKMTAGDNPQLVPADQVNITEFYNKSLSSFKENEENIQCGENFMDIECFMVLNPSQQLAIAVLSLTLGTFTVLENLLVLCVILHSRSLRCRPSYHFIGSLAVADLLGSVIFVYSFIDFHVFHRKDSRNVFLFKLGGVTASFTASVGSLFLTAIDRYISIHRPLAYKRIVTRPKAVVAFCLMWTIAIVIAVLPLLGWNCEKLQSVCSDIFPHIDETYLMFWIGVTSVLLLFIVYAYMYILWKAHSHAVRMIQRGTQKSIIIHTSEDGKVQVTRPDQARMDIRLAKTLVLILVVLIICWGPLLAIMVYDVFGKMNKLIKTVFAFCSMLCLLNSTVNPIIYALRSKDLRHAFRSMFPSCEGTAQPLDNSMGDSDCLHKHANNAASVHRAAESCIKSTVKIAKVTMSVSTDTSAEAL
# T5 sequence (P34972 whole entry): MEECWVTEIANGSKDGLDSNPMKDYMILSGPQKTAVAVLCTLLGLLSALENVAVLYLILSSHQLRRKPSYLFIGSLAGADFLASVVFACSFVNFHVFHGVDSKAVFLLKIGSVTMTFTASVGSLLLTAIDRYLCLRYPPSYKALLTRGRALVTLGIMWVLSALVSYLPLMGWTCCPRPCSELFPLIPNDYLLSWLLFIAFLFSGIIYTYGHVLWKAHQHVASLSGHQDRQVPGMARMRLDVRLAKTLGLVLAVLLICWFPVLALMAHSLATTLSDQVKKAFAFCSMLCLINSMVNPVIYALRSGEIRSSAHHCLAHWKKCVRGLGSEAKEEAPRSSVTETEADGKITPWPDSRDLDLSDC
# Sequence of Tyrosine-protein phosphatase non-receptor type 12 (Q05209 whole entry): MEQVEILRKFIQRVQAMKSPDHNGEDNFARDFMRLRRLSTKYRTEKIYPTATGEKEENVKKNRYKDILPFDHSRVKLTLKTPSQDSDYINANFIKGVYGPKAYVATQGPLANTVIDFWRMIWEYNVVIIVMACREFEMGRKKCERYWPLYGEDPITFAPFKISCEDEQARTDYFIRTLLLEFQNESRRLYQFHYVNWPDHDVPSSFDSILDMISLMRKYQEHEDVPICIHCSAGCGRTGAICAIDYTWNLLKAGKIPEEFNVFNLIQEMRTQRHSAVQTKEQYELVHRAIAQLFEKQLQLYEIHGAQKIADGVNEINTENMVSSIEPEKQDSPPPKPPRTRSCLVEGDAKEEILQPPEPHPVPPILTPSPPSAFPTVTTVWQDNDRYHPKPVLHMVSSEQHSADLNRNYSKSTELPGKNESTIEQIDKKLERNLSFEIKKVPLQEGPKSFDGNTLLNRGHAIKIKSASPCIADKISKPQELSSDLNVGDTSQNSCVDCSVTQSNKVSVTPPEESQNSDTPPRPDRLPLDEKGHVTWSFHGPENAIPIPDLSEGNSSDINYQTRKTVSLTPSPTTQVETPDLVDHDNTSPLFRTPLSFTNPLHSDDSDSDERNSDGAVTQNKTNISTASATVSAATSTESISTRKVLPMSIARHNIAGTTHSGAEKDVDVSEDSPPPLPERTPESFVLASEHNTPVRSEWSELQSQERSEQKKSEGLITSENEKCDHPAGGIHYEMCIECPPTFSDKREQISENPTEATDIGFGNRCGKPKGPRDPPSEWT
# Sequence of G-protein coupled receptor 55 (Q9Y2T6 whole entry): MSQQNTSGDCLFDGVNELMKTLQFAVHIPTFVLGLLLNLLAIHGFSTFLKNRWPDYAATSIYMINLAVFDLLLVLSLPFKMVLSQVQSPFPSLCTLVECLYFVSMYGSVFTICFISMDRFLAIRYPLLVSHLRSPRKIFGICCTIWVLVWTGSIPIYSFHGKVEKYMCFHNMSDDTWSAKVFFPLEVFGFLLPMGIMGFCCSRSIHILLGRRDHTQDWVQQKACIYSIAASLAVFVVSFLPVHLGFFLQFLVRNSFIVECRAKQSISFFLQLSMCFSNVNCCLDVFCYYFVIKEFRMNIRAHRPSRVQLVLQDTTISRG
# Sequence of Kappa-type opioid receptor (P41145 whole entry): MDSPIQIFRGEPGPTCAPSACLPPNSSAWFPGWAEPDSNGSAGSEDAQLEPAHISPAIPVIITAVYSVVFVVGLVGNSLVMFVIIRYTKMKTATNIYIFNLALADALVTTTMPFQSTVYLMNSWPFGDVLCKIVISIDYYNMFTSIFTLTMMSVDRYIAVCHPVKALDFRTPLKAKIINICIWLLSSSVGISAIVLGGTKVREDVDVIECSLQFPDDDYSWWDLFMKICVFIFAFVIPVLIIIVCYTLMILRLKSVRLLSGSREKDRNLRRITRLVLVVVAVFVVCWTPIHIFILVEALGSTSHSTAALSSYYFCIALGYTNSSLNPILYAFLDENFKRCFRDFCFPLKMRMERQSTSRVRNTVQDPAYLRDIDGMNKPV
compound,measurement,setting,value
FC(F)(F)c1cc(CSc2nnc(-c3ccccn3)n2Cc2ccccc2)ccc1Cl,EC50,[1],2.22 µM (active)
CCOC(=O)c1c(C)[nH]c(C2=NN=C(Nc3ccccc3OC)SC2)c1C,EC50,Hexokinase HKDC1,15 µM (active)
same,EC50,Hexokinase-1,15.3 µM (active)
N=c1c(C(=O)NCc2ccco2)cc2c(=O)n3ccccc3nc2n1C1CCCC1,EC50,[2],> 32 µM (inactive)
same,EC50,Cannabinoid receptor 1 [3],> 32 µM (inactive)
same,IC50,[4],> 32 µM (inactive)
same,IC50,Cannabinoid receptor 1 [5],31.5 µM (inactive)
same,IC50,[6],28.3 µM (inactive)
same,IC50,Cannabinoid receptor 2 [7],> 32 µM (inactive)
same,EC50,Cannabinoid receptor 2 [8],2.13 µM (active)
CN1CCN(C2=Cc3cc(Cl)ccc3Sc3cc(F)ccc32)CC1,EC50,[9],7.44 µM (active)
same,EC50,Streptokinase A,> 150 µM (not active)
same,EC50,[10],9.39 µM (active)
same,EC50,[11],10.5 µM (active)
same,EC50,Streptococcus,12 µM (active)
same,AC50,[12],6.63 µM (active)
same,IC50,[13],> 125 µM (active)
COc1cc(/C=C(\C#N)C(=O)Nc2cccc(C(=O)O)c2)ccc1OCc1ccc(C)cc1,IC50,[14],22.1 µM (active)
same,IC50,[15],2.69 µM (active)
same,IC50,[16],5.39 µM (active)
same,IC50,[17],2.02 µM (active)
same,IC50,[18],14.7 µM (active)
